Experimental data reported in patent publication US11376272B2, “Methods of modulating immune activity” (Flagship Pioneering Innovations V, Inc., priority 2019, dated 2022).

Columns and labels:
IRF = IRF reporter activity in THP1-Dual cells treated with conditioned media and/or compounds (QuantiLuc); format: cell-based, human
Method: (§1) HeLa cervical cancer cells were grown in either DMEM containing 10% FBS (standard culture conditions), or in PBS (nutrient-deprivation) for 48 hours. Conditioned media from each condition was then transferred to THP1-Dual cells in the presence of 300 ng/ml of 2′3′-cGAMP (purchased from Invivogen, cat no. tlrl-nacga23, and resuspended in water). THP1 cells treated with conditioned media were incubated for an additional 24 hours. THP1 supernatants were then assessed for NfkB or IRF reporter activity.
(§2) HeLa cells were acquired from the ATCC (catalog no. CCL 2.2) and were cultured in DMEM containing 10% FBS. THP1-Dual cells, which are human monocytes that report on both the NfkB and IRF pathways, were purchased from Invivogen (cat no. thpd-nfis) and were cultured in RPMI containing 10% FBS and 100 μg/ml normocin.
(§3) To generate conditioned media, 3 million HeLa cells were seeded in a 10 cm dish in DMEM containing 10% FBS. Cells were left overnight to adhere and then plates were washed 3× with PBS prior to replacing media with either fresh DMEM containing 10% FBS, or with PBS. Cells were incubated for 48 hours, and then the conditioned media was removed, spun down and sterile filtered.
(§4) To measure IRF or NfkB pathway activation, 35,000 THP1-Dual cells/well were seeded in a 96-well plate (100 μl/well). 100 μl of HeLa conditioned media was transferred to each well, plus or minus 2′3′-cGAMP (300 ng/ml final concentration). After a 24 hour incubation period, IRF and NfkB activity were measured. To measure IRF activity, 50 μl of THP1 supernatant was transferred to a 96-well plate, and 50 μl of QuantiLuc reagent was added to each well immediately prior to reading luminescence by a platereader. To measure NfkB activity, 50 μl of THP1 supernatant was transferred to a 96-well plate containing 200 μl of QuantiBlue reagent. The plate was then incubated at room temperature for 2-3 hours prior to reading the absorbance at 655 nm.
THP1-Dual cells (acquired from Invivogen) were seeded at 35,000 cells/well in a 96-well plate (100 μl/well). In a separate treatment plate, a 3-fold dose-response curve of each CDN was prepared, starting at 40 μg/ml, in either plain PBS or in combination with HeLa-PBS conditioned media (conditioned media prepared as previously described). 100 μl of compound treatment was transferred to THP1 cells (1:1 dilution) and cells were incubated for 24 hours. THP1 supernatants were subsequently removed and assayed for IRF activity.
THP1-Dual cells were plated at 35,000 cells/well in 96-well format. To each well, 100 μl of conditioned media was added (in triplicate) in the presence or absence of 2′3′-cGAMP (300 ng/ml). THP1-Dual cells were then incubated for 24 hours with conditioned media prior to assaying IRF induction.
THP1-Dual cells (acquired from Invivogen) were seeded at 35,000 cells/well in a 96-well plate (100 μl/well). In a separate treatment plate, a 3-fold dose-response curve of each purinergic receptor antagonist was prepared, starting at 20 μM, in either 2′3′-cGAMP alone or 2′3′-cGAMP in combination with HeLa-PBS conditioned media (conditioned media prepared as described in examples above). 100 μl from the treatment plate was then transferred to THP1 cells (1:1 dilution), and the cells were incubated for 24 hours. THP1 supernatants were removed and tested for IRF activity.
THP1 cells, acquired from Invivogen, were seeded at 35,000 cells/well in 96-well format, in 100 μl media. In a separate treatment plate, a dose curve of PSB 1114, starting at 20 μM, was prepared in either plain PBS, or in the presence of cGAMP. 100 μl from treatment plate was transferred to THP1 cells (1:1 dilution), and cells were incubated for 24 hours prior to IRF and NfkB read-out.
THP1 cells, acquired from Invivogen, were seeded at 35,000 cells/well in 96-well format, in 100 μl media. In a separate treatment plate, a dose curve of Diquafosol (acquired from MedChemExpress), starting at 100 μM, was prepared in either plain PBS, or in the presence of cGAMP. […]

[1] = test system: A20 B-cell lymphoma tumor cells; test: Survival in mouse model of A20 B-cell lymphoma; format: in vivo, BALB/c mice; settings: combination of 1 μg/kg ADU-S100 and 10 mg/animal diquafosol tetrasodium intratumorally once per day (Group 5), relative to either agent alone (Groups 2, 4)
Method: Test BALB/c mice were injected subcutaneously in the right flank with 1×10^6 A20 B-cell lymphoma tumor cells (in a 0.1 mL cell suspension). Sixteen days after tumor cell implantation, on Day 1 of the study, animals were sorted into ten groups (n=10) with individual tumor volumes between 48 and 100 mm^3 and a group mean tumor volume of 81 mm^3. Five groups of mice were dosed according in the following treatment groups.
Group 1 received Vehicle (PBS) intratumorally once per day. • Group 2 received 1 μg/kg of the STING agonist (ADU-S100) intratumorally once per day. • Group 3 received 50 μg/kg of the STING agonist (ADU-S100) intratumorally once per day. • Group 4 received 10 mg/animal of the purinergic receptor agonist (diquafosol testrasodium) intratumorally once per day. • Group 5 received 1 μg/kg ADU-S100 intratumorally combined with 10 mg/animal of diquafosol testrasodium intratumorally once per day.
ADU-S100 and Diquafosol tetrasodum were dosed intratumorally (itu) in a total volume of 50 μL of therapeutic agents; combination therapies were administered as single injections containing 2×25 μL of 2× dosing solutions.
Tumors were measured using calipers twice per week.

NfkB = NfkB reporter activity in THP1-Dual cells (QuantiBlue); format: cell-based, human; settings: 24 hours
Method: as §1
as §2, with “normocin. […]” for “normocin.”
as §4, with “100 μl of HeLa conditioned media was transferred to each well, plus or minus 2′3′-cGAMP (300 ng/ml final concentration).” left out, “To measure NfkB activity, 50 μl of THP1 supernatant was transferred to a 96-well plate containing 200 μl of QuantiBlue reagent.” left out

IFN-beta [2] = test: IFN-beta secretion from THP1 monocytes (ELISA); format: cell-based, human; settings: THP1 monocytes exposed to HeLa/PBS conditioned media in combination with 2′3′-cGAMP 300 ng/ml, 24 hours
Method: (§5) HeLa cervical cancer cells were grown in PBS (nutrient-deprivation) for 48 hours. THP1 cells were then treated with the HeLa-PBS (nutrient deprived) conditioned media in the presence and absence of 2′3′-cGAMP. THP1 supernatants were then assayed for the secretion of IFN-beta, a cytokine regulated by IRF. The same experiment was additionally performed using the mouse macrophage cell line J774 in place of the THP1 cells.
as §3
500,000 THP1-Dual cells/well were seeded in a 24-well plate. 500 μl (1:1 dilution) of each condition was added to the well (PBS; PBS+300 ng/ml cGAMP; HeLa-PBS CM; HeLa-PBS CM+300 ng/ml cGAMP) and incubated for 24 hours. Cell supernatants were then spun down and sterile filtered prior to performing ELISA assay. ELISA assay was performed using the human IFN-beta DuoSet ELISA kit (DY814-05) and following the protocol provided by the manufacturer.

IFN-beta [3] = test: IFN-beta secretion from J774 macrophages (ELISA); format: cell-based, mouse; settings: J774 macrophages exposed to HeLa/PBS conditioned media in combination with 2′3′-cGAMP, 24 hours
Method: as §5, §3
The same experiment was additionally performed using J774 cells (ATCC, TIB-67). In brief 500,000 cells/well were seeded in a 24-well plate. After cell adherence, media was refreshed, and HeLa conditioned media was added either in the presence or absence of 2′3′-cGAMP (as described above). After 24 hours J774 supernatant was removed an assayed for IFN-beta secretion as described above.

human STING alleles = settings: HEK293T cells; Corrales et al., 2015; cited from earlier work
IFN-β = settings: PBMCs isolated from multiple donors with different STING genotypes; Corrales et al., 2015; cited from earlier work
B16.F10 melanoma = settings: Corrales et al., 2015; cited from earlier work
4T1 mammary carcinoma = settings: Corrales et al., 2015; cited from earlier work
CT26 colon carcinoma = settings: Corrales et al., 2015; cited from earlier work
[4] = combination of Diquafosol (dose curve starting at 100 μM) and ADU-S100 (2 μM), THP1 cells, 24 hours
[5] = combination of Diquafosol (dose curve starting at 100 μM) and cGAMP, THP1 cells, 24 hours
[6] = combination of PSB 1114 (dose curve starting at 20 μM) and 2′3′-cGAMP, THP1 cells, 24 hours

O=c1ccn([C@@H]2O[C@H](COP(=O)(O)OP(=O)(O)OP(=O)(O)OP(=O)(O)OC[C@H]3O[C@@H](n4ccc(=O)[nH]c4=O)[C@H](O)[C@@H]3O)[C@@H](O)[C@H]2O)c(=O)[nH]1 [Diquafosol]
IRF signaling (IRF; [4]): synergizes | IRF signaling (IRF; [5]): induced IRF signaling | survival [1]: much greater effect on increasing survival

Cc1ccc2c(c1)C=Cc1cc(C)ccc1C2c1cn(Cc2ccc(C(=O)Nc3nn[nH]n3)o2)c(=O)[nH]c1=S [AR-C 118925]
synergistic induction of IRF activity by cGAMP in combination with HeLa-PBS conditioned media (IRF; purinergic receptor antagonist 3-fold dose-response starting at 20 μM, THP1-Dual cells, 24 hours): inhibited

O=c1[nH]c(=S)ccn1[C@@H]1O[C@H](COP(=O)(O)OP(=O)(O)C(F)(F)P(=O)(O)O)[C@@H](O)[C@H]1O [PSB 1114]
IRF signaling (IRF; [6]): induced IRF signaling

Nc1nc2c(ncn2[C@@H]2O[C@@H]3COP(=O)(O)O[C@H]4[C@@H](O)[C@H](n5cnc6c(N)ncnc65)O[C@@H]4COP(=O)(O)O[C@@H]2[C@@H]3O)c(=O)[nH]1 [2′3′-cGAMP]
IRF signaling (IRF; [5]): induced IRF signaling | IRF signaling (IRF; [6]): induced IRF signaling | IRF signaling (IRF; combination of conditioned media from HeLa cells in DMEM+10% FBS (standard culture) and 2′3′-cGAMP 300 ng/ml, THP1-Dual cells, 24 hours): only slightly induced | IRF signaling (IRF; combination of nutrient-starved (PBS, 48 hours) HeLa conditioned media and 2′3′-cGAMP 300 ng/ml, THP1-Dual cells, 24 hours): increased | IRF signaling (IRF; combinations of cGAMP with purinergic receptor agonist nucleotide triphosphates, human monocytes, data not shown): induced IRF signaling | IRF activation (IRF; conditioned media (PBS, 48 hours) of A549, A427, J774, AMJ2C11, PANC1, MLE12, RAW264, Calu-1, MCF7 cells in combination with 2′3′-cGAMP 300 ng/ml, THP1-Dual cells, 24 hours): induced IRF activation | NFKB signaling (NfkB; combination of conditioned media from HeLa cells in DMEM+10% FBS (standard culture) and 2′3′-cGAMP 300 ng/ml): only slightly induced | NFKB signaling (NfkB; combination of nutrient-starved (PBS, 48 hours) HeLa conditioned media and 2′3′-cGAMP 300 ng/ml): increased | IFN-beta secretion (IFN-beta [2]): increased | IFN-beta secretion (IFN-beta [3]): increased

Nc1ncnc2c1ncn2[C@@H]1O[C@@H]2COP(=O)([S-])O[C@@H]3[C@H](O)[C@@H](COP([O-])(=S)O[C@H]2[C@H]1O)O[C@H]3n1cnc2c(N)ncnc21.[Na+].[Na+] (some centres unmarked) [ADU-S100]
IRF signaling (IRF; combination of ADU-S100 (dose curve starting at 20 μM) and nutrient starved (PBS) HeLa conditioned media, THP1 cells, 24 hours): strongly increased IRF signaling | IRF signaling (IRF; [4]): synergizes | survival [1]: much greater effect on increasing survival | STING activation (human STING alleles): broadly activate all known human STING alleles | expression of IFN-β (IFN-β): induced dose-dependent expression of IFN-β | antitumor immune response and tumor regression (B16.F10 melanoma): potent antitumor immune response and significant tumor regression | antitumor immune response and tumor regression (4T1 mammary carcinoma): potent antitumor immune response and significant tumor regression | antitumor immune response and tumor regression (CT26 colon carcinoma): potent antitumor immune response and significant tumor regression
